Earlier results on one molecule are cited in patent US20180008598A1, “ANTIBACTERIAL NASAL COMPOSITIONS AND RELATED METHODS” (Xlear, Inc., priority 2016, published 2018).

One data set deals with Streptococcus pneumonia. To be noted: in vitro, during its logarithmic growth phase.
For the next data set, the system named is dental caries. The settings on record: regular consumption.

Regarding `OC[C@@H](O)[C@H](O)[C@@H](O)CO` [Xylitol, xylitol], the “growth of Streptococcus pneumonia” value in the data set with Streptococcus pneumonia is “inhibit the growth”. Moreover, in the data set with dental caries, the “incidence of dental caries” value is “reduce the incidence of dental caries”.
